Experimental data published in article PMC8795738, “The Tarantula Venom Peptide Eo1a Binds to the Domain II S3-S4 Extracellular Loop of Voltage-Gated Sodium Channel NaV1.8 to Enhance Activation” (Frontiers in Pharmacology, 2022).
Where a SMILES comes first, the peptide text is derived from it. Bridges are numbered along the chain shown (N, C = ends).

Experiments:
[1] = test system: NaV1.6; assay: I-V protocol, whole-cell patch-clamp, NaV1.6; format: cell-based, human; settings: Eo1a 10 μM
Protocol: (§1) Human Embryonic Kidney (HEK) 293 cells stably expressing human NaV1.1 to NaV1.7/β1 (SB Drug Discovery, Glasgow, United Kingdom), Chinese Hamster Ovary (CHO) cells stably expressing human NaV1.8/β3 in a tetracycline-inducible system (ChanTest, Cleveland, OH, United States), and HEK293 cells stably expressing rat transient receptor potential vanilloid 1 (TRPV1) were cultured as previously described ([Yin et al., 2020]). Human KV2.1 and NaV1.7 mutants were transiently transfected into HEK293 cells stably expressing β1/β2 using Lipofectamine 2000 (Thermo Fisher Scientific, Scoresby, VIC, Australia) and used for patch-clamp experiments 48 h after transfection. Cells were grown in an incubator at 37°C with 5% CO2 and passaged every 3–4 d (at 70–80% confluency) using TrypLE Express (Thermo Fisher Scientific).
(§2) Automated whole-cell patch-clamp recordings were performed with a QPatch-16 automated electrophysiology platform (Sophion Bioscience, Ballerup, Denmark) using single-hole (QPlate 16 with a standard resistance of 2 ± 0.4 MΩ) or multi-hole (QPlate 16X with a standard resistance 0.2 ± 0.04 MΩ, NaV1.8 only) as previously described ([McMahon et al., 2020]).
The extracellular solution (ECS) consisted of (in mM) 145 NaCl (replaced with 70 choline chloride for NaV1.4, NaV1.5 and NaV1.7), 4 KCl, 2 CaCl2, 1 MgCl2, 10 HEPES, and 10 glucose, pH to 7.4 with NaOH (adjusted to 305 mOsm/L with sucrose). For NaV recordings the intracellular solution (ICS) consisted of (in mM) 140 CsF, 1 EGTA, 5 CsOH, 10 HEPES, and 10 NaCl, pH to 7.3 with CsOH (adjusted to 320 mOsm/L with sucrose). For KV2.1 recordings the ICS consisted of (in mM) 50 KCl, 60 KF, 10 EGTA, 10 HEPES, 10 NaCl pH to 7.3 with KOH (adjusted to 320 mOsm/L with sucrose). […]
(§3) The time constant of fast inactivation (τ) was computed by fitting the current decay traces with a single exponential function using QPatch Assay Software 5.6 (Sophion). The time to peak was calculated from pulse onset to peak inward current using QPatch Assay Software 5.6 (Sophion).

[2] = test system: WT mice; assay: Spontaneous pain after intraplantar injection, WT littermate mice; format: in vivo, mouse; settings: Eo1a intraplantar, mean ± SEM, n = 3–4 mice
Text: (§4) Adult male C57BL/6J mice aged 4–8 weeks were sourced from the Animal Resource Centre (Canning Vale, Western Australia). Adult male NaV1.8 knockouts ([Nassar et al., 2004]) (aged 8–11 weeks) and wild-type littermates were housed and tested at University College London. Animals were housed in groups of three or four per cage under 12-h light-dark cycles and were provided with standard rodent chow and water ad libitum. Ethical approval for experiments involving animals was obtained from The University of Queensland animal ethics committee (TRI/IMB/093/17, IMB/PACE/421/18) and the United Kingdom Home Office (project licence PPL 70/7382). All experiments were conducted in accordance with the International Association for the Study of Pain Guidelines for the Use of Animals in Research and the Australian Code of Practice for the Care and Use of Animals for Scientific Purposes, 8th edition (2013).
Eo1a (1 μM or 10 μM) was diluted in saline/0.1% BSA and administered by intraplantar injection to the left hind paw of mice in a volume of 40 μl under isoflurane (3%) anaesthesia, and spontaneous pain behaviours (licks, bites, shakes, and lifts of the hind paw) were counted by a blinded investigator for up to 40 min after the injection.

[3] = test system: NaV1.5; assay: I-V protocol, whole-cell patch-clamp, NaV1.5; format: cell-based, human; settings: Eo1a 10 μM
Protocol: as §1, §2
(§5) The extracellular solution (ECS) consisted of (in mM) 145 NaCl (replaced with 70 choline chloride for NaV1.4, NaV1.5 and NaV1.7), 4 KCl, 2 CaCl2, 1 MgCl2, 10 HEPES, and 10 glucose, pH to 7.4 with NaOH (adjusted to 305 mOsm/L with sucrose). For NaV recordings the intracellular solution (ICS) consisted of (in mM) 140 CsF, 1 EGTA, 5 CsOH, 10 HEPES, and 10 NaCl, pH to 7.3 with CsOH (adjusted to 320 mOsm/L with sucrose). For KV2.1 recordings the ICS consisted of (in mM) 50 KCl, 60 KF, 10 EGTA, 10 HEPES, 10 NaCl pH to 7.3 with KOH (adjusted to 320 mOsm/L with sucrose). TTX (1 μM) was added to the ECS for NaV1.8 recordings to inhibit background endogenous TTX sensitive current in CHO cells.
(§6) I-V curves were obtained with a holding potential of −90 mV followed by a series of 500 ms step pulses that ranged from −110 to +80 mV in 5-mV increments (repetition interval 5 s) before and after 5 min incubation with Eo1a (10 μM). Conductance-voltage (G-V) curves were obtained by calculating the conductance (G) at each voltage (V) using equation G = I/(V − V rev ), where V rev is the reversal potential. G-V curves were fitted with a Boltzmann equation. […]
as §3

[4] = test system: NaV1.7; assay: I-V protocol, whole-cell patch-clamp, NaV1.7; format: cell-based, human; settings: Eo1a 10 μM
Protocol: as §1, §2, §5, §6, §3

[5] = test system: DRG neurons; assay: Calcium imaging of dorsal root ganglion (DRG) neurons; format: cell-based, mouse
Text: as §4
For Ca^2+ imaging experiments, DRG neurons were isolated from 4 week old male C57BL/6J mice as previously described ([Robinson et al., 2018]). DRG neurons were dissociated and plated in 96-well poly-D-lysine-coated culture plates grown in Dulbecco’s modified Eagle’s medium supplemented with 10% fetal bovine serum (FBS) and penicillin/streptomycin and cultured for 24 h at 37°C with 5% CO2. Dissociated DRG neurons were loaded with Fluo-4 AM calcium indicator (5 μM) for 1 h, then washed with Hanks’ balanced salt solution (HBSS) containing 20 mM HEPES. Fluorescence was measured using a Nikon Ti-E Deconvolution inverted microscope, in conjunction with a Lumencor Spectra LED light source (excitation, 485 nm; emission, 521 nm). Images were acquired at 1 frame per s using a 20× objective. […] Only excitable cells responding to KCl were included for analysis. Cells were classified as responders if they had at least a 1.5-fold increase in fluorescence over baseline.

For `CC[C@H](C)[C@@H]1NC(=O)[C@H](CCCNC(=N)N)NC(=O)[C@@H]2CSSC[C@@H]3NC(=O)CNC(=O)CNC(=O)[C@H](CC(C)C)NC(=O)[C@H](Cc4ccccc4)NC(=O)[C@H](Cc4c[nH]c5ccccc45)NC(=O)[C@H](CCCNC(=N)N)NC(=O)[C@@H](NC(=O)[C@@H](N)CC(=O)O)CSSC[C@H](NC(=O)[C@H](CSSC[C@@H](C(=O)N[C@@H](C)C(=O)N[C@@H](Cc4c[nH]c5ccccc45)C(=O)N[C@@H](CC(=O)O)C(=O)NCC(=O)N[C@H](C(=O)N[C@@H](Cc4ccccc4)C(N)=O)[C@@H](C)O)NC(=O)[C@H](Cc4ccc(O)cc4)NC(=O)[C@H](CCCCN)NC(=O)[C@H]([C@@H](C)CC)NC(=O)[C@H](Cc4ccc(O)cc4)NC(=O)CNC(=O)[C@H](CC(=O)O)NC1=O)NC(=O)[C@H](CC(=O)O)NC(=O)[C@H](CO)NC(=O)[C@H](CC(=O)O)NC(=O)[C@H](CCCCN)NC(=O)[C@H](CO)NC3=O)C(=O)N[C@@H](CCCCN)C(=O)N[C@@H](Cc1c[nH]cn1)C(=O)N[C@@H](CC(C)C)C(=O)N[C@@H](C)C(=O)N2` [Eo1a] (H-DCRWFLGGCSKDSDCCKHLACRIDGYIKYCAWDGTF-NH2; disulfide 2-16, 9-21, 15-30 (inferred); N-terminus assumed), the V1/2 activation ([1]; 5 min, control −22.7 ± 1.0 mV, *p < 0.05, mean ± SEM, n = 4–6) was −35.0 mV, the “V1/2 inactivation (steady-state fast inactivation)” value (“V1/2 inactivation” below) ([1]; 5 min, control −56.3 ± 1.1 mV, mean ± SEM, n = 4–6) was −56.2 ± 1.0 and the “effect on fast inactivation” value ([1]; test pulse −20 mV) was “delayed fast-inactivation”. The “spontaneous pain (flinches)” value [2] was 392 ± 45 Flinches/15 min, the “peak current I/I0” value ([3]; 5 min, peak from I-V protocol at any voltage, normalised to buffer control, HEK293 hNaV1.5/β1, mean ± SEM, n = 4–6 cells) was 0.41 ± 0.05 and the V1/2 activation ([3]; NaV1.5, 5 min, control −30.3 ± 4.0 mV, mean ± SEM, n = 4–6) was −27.1 ± 2.2 mV. The “V1/2 inactivation” value ([3]; NaV1.5, 5 min, control −70.2 ± 0.9 mV, mean ± SEM, n = 4–6) was −75.5 ± 1.0, the “effect on inactivation kinetics” value ([3]; NaV1.5, test pulse −20 mV) was “minimal effect” and the “peak current I/I0” value ([4]; 5 min, peak from I-V protocol at any voltage, normalised to buffer control, HEK293 hNaV1.7/β1, mean ± SEM, n = 4–6 cells) was 0.63 ± 0.10. The V1/2 activation ([4]; NaV1.7, 5 min, control −26.1 ± 1.5 mV, mean ± SEM, n = 4–6) was −32.9 ± 2.9 mV, the “V1/2 inactivation” value ([4]; NaV1.7, 5 min, control −65.5 ± 1.4 mV, mean ± SEM, n = 4–6) was −69.1 ± 4.3 and the “effect on fast inactivation” value ([4]; NaV1.7, test pulse −20 mV) was “delayed fast-inactivation”. The “neurons activated in the presence of TTX” value ([5]; Eo1a 10 μM + TTX 1 μM, dissociated DRG neurons of C57BL/6J mice, Fluo-4, mean ± SEM of 2–3 wells) was 30 ± 2%, the “neurons with Ca2+ influx (activated)” value ([5]; Eo1a 10 μM, dissociated DRG neurons of C57BL/6J mice, Fluo-4, responder = at least 1.5-fold fluorescence increase, without TTX, mean ± SEM of 2–3 wells) was 44 ± 3% and the “size of activated neurons” value ([5]; Eo1a 10 μM, n = 473 alone, n = 317 with TTX, distribution did not change with TTX) was “smaller size”.
